Assay results published in PubChem BioAssay AID2060910 (Molecular Pharmacology Branch, DTP, NCI, 2025).

System: 242566-281-R-J2-PDC complex spheroid viability
Test: Anticancer human tumor 242566-281-R-J2-PDC patient-derived pancreatic carcinoma cell line growth inhibition [RAS]
Settings: for IC50: curve of first compound; for viability, T/C: stronger effect = lower value; active = viability on the fitted dose curve at most 10% of control; inactive = the rest
Outline: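 Tumour cells grown as complex spheroids with HUVEC endothelial cells and mesenchymal stem cells, treated with RAS pathway inhibitor combinations. Each agent spans half-log steps from near clinical Cmax, or 10 microM where Cmax is unknown.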
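Also: spheroids exposed to compound for 7 days before readout.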
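For viability, T/C in this document: 100% = DMSO vehicle control wells.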

CCN1CCN(Cc2ccc(Nc3ncc(F)c(-c4cc(F)c5nc(C)n(C(C)C)c5c4)n3)nc2)CC1 + C#Cc1c(F)ccc2cc(O)cc(-c3ncc4c(N5CC6CCC(C5)N6)nc(OCC56CCCN5CC(F)C6)nc4c3F)c12
< 3.16 nM: IC50 (second compound 3.16 µM) | IC50 (second compound 10 µM)
3.16 nM: IC50 (second compound 1 µM)
inactive: viability, T/C (second compound 0.0316 µM, first compound 0.00316 µM) 110% | viability, T/C (second compound 0.0316 µM, first compound 0.01 µM) 108% | viability, T/C (second compound 0.0316 µM, first compound 0.0316 µM) 85% | viability, T/C (second compound 0.0316 µM, first compound 0.1 µM) 61.7% | viability, T/C (second compound 0.0316 µM, first compound 0.316 µM) 84.9% | viability, T/C (second compound 0.0316 µM, first compound 1 µM) 99% | viability, T/C (second compound 0.1 µM, first compound 0.00316 µM) 95% | viability, T/C (second compound 0.1 µM, first compound 0.01 µM) 81.1% | viability, T/C (second compound 0.1 µM, first compound 0.0316 µM) 77.5% | viability, T/C (second compound 0.1 µM, first compound 0.1 µM) 56.5% | viability, T/C (second compound 0.1 µM, first compound 0.316 µM) 76% | viability, T/C (second compound 0.1 µM, first compound 1 µM) 85.2% | viability, T/C (second compound 0.316 µM, first compound 0.00316 µM) 79.9% | viability, T/C (second compound 0.316 µM, first compound 0.01 µM) 72% | viability, T/C (second compound 0.316 µM, first compound 0.0316 µM) 46.7% | viability, T/C (second compound 0.316 µM, first compound 0.1 µM) 51.9% | viability, T/C (second compound 0.316 µM, first compound 0.316 µM) 72% | viability, T/C (second compound 0.316 µM, first compound 1 µM) 87.3% | viability, T/C (second compound 1 µM, first compound 0.00316 µM) 64.5% | viability, T/C (second compound 1 µM, first compound 0.01 µM) 62.1% | viability, T/C (second compound 1 µM, first compound 0.0316 µM) 50.5% | viability, T/C (second compound 1 µM, first compound 0.1 µM) 43.5% | viability, T/C (second compound 1 µM, first compound 0.316 µM) 63.3% | viability, T/C (second compound 1 µM, first compound 1 µM) 77.1% | viability, T/C (second compound 3.16 µM, first compound 0.00316 µM) 56.6% | viability, T/C (second compound 3.16 µM, first compound 0.01 µM) 47.2% | viability, T/C (second compound 3.16 µM, first compound 0.0316 µM) 31.6% | viability, T/C (second compound 3.16 µM, first compound 0.1 µM) 37.3% | viability, T/C (second compound 3.16 µM, first compound 0.316 µM) 58.5% | viability, T/C (second compound 3.16 µM, first compound 1 µM) 72.4% | viability, T/C (second compound 10 µM, first compound 0.00316 µM) 54.3% | viability, T/C (second compound 10 µM, first compound 0.01 µM) 48.2% | viability, T/C (second compound 10 µM, first compound 0.0316 µM) 40.1% | viability, T/C (second compound 10 µM, first compound 0.1 µM) 37.6% | viability, T/C (second compound 10 µM, first compound 0.316 µM) 51.7% | viability, T/C (second compound 10 µM, first compound 1 µM) 63.1%
> 1000 nM: IC50 (second compound 0.0316 µM) | IC50 (second compound 0.1 µM) | IC50 (second compound 0.316 µM)

Cc1nc(N2CCC3(CC2)COC(C)C3N)c(CO)nc1Sc1ccnc(N)c1Cl (centres undefined) + CCn1c(-c2cc(N3CCN(C)CC3)cnc2C(C)OC)c2c3cc(ccc31)-c1csc(n1)CC(NC(=O)C1CC1C)C(=O)N1CCCC(N1)C(=O)OCC(C)(C)C2
inactive: viability, T/C (second compound 0.000949 µM, first compound 0.0316 µM) 92.2% | viability, T/C (second compound 0.000949 µM, first compound 0.1 µM) 69.8% | viability, T/C (second compound 0.000949 µM, first compound 0.316 µM) 43.5% | viability, T/C (second compound 0.000949 µM, first compound 1 µM) 45% | viability, T/C (second compound 0.000949 µM, first compound 3.16 µM) 32.9% | viability, T/C (second compound 0.000949 µM, first compound 10 µM) 19.8% | viability, T/C (second compound 0.003 µM, first compound 0.0316 µM) 61% | viability, T/C (second compound 0.003 µM, first compound 0.1 µM) 46.9% | viability, T/C (second compound 0.003 µM, first compound 0.316 µM) 31% | viability, T/C (second compound 0.003 µM, first compound 1 µM) 28.2% | viability, T/C (second compound 0.003 µM, first compound 3.16 µM) 26.1% | viability, T/C (second compound 0.003 µM, first compound 10 µM) 16.1% | viability, T/C (second compound 0.00949 µM, first compound 0.0316 µM) 41.3% | viability, T/C (second compound 0.00949 µM, first compound 0.1 µM) 26.4% | viability, T/C (second compound 0.00949 µM, first compound 0.316 µM) 27.9% | viability, T/C (second compound 0.00949 µM, first compound 1 µM) 21.9% | viability, T/C (second compound 0.00949 µM, first compound 3.16 µM) 19.4% | viability, T/C (second compound 0.00949 µM, first compound 10 µM) 17.1% | viability, T/C (second compound 0.03 µM, first compound 0.0316 µM) 25.8% | viability, T/C (second compound 0.03 µM, first compound 0.1 µM) 24.3% | viability, T/C (second compound 0.03 µM, first compound 0.316 µM) 19.3% | viability, T/C (second compound 0.03 µM, first compound 1 µM) 17.9% | viability, T/C (second compound 0.03 µM, first compound 3.16 µM) 15.1% | viability, T/C (second compound 0.03 µM, first compound 10 µM) 14.9% | viability, T/C (second compound 0.0949 µM, first compound 0.0316 µM) 21.5% | viability, T/C (second compound 0.0949 µM, first compound 0.1 µM) 19.1% | viability, T/C (second compound 0.0949 µM, first compound 0.316 µM) 18.5% | viability, T/C (second compound 0.0949 µM, first compound 1 µM) 16.9% | viability, T/C (second compound 0.0949 µM, first compound 3.16 µM) 14.3% | viability, T/C (second compound 0.0949 µM, first compound 10 µM) 15.4% | viability, T/C (second compound 0.3 µM, first compound 0.0316 µM) 21.5% | viability, T/C (second compound 0.3 µM, first compound 0.1 µM) 18.1% | viability, T/C (second compound 0.3 µM, first compound 0.316 µM) 16.6% | viability, T/C (second compound 0.3 µM, first compound 1 µM) 14.8% | viability, T/C (second compound 0.3 µM, first compound 3.16 µM) 16.4% | viability, T/C (second compound 0.3 µM, first compound 10 µM) 12.9%
353 nM: IC50 (second compound 0.000949 µM)
< 31.6 nM: IC50 (second compound 0.00949 µM) | IC50 (second compound 0.03 µM) | IC50 (second compound 0.0949 µM) | IC50 (second compound 0.3 µM)
71.8 nM: IC50 (second compound 0.003 µM)
